# According to publication PMC4326489, “Efficacy and pharmacokinetic evaluation of a novel anti-malarial compound (NP046) in a mouse model” (Malaria Journal, 2015):
# Experiments:
# [1] = Kinetic solubility (HPLC-UV); format: physicochemical; conditions: aqueous buffer, kinetic from dmso stock, PBS pH 2.0
# Description: The concentration of the test compound (x) in PBS samples was calculated from the peak area (y) in its UV chromatogram by extrapolation from the three-point calibration line, using the equation y = ax + b; where a = slope and b = intercept.
# Summary of the assay method for the determination kinetic solubility:
# PBS was prepared and its pH adjusted to 2.0 and 7.4
# primary stock solutions of the test compounds and controls (reserpine and hydrocortisone) in DMSO at 10 mM were prepared
# Samples were briefly vortex mixed
# samples were incubated for 2 hours while mixing in an incubator with orbital shaker at 200 rpm
# samples were centrifuged at 3500 rpm for 15 minutes at 22 °C
# the supernatant of the standards were transferred from the clear 96-well plate into an opaque, round bottom 96-well analysis plate, while the aqueous samples were filtered using a vacuum manifold through a multi-screen filter plate (MSRLN 0450, 0.4 µM), into the same opaque, round bottom 96-well plate
# samples were analysed using HPLC-UV method by injecting the STDs in duplicate, and the samples in singlet.
# [2] = system: Plasmodium berghei transfected with green fluorescence protein (strain ANKA); assay: In vivo efficacy (four-day dosing) in P. berghei-infected mice, % parasitaemia by flow cytometry; design: species or system Plasmodium berghei in male C57BL/6 mice; conditions: 10 mg/kg oral, day five post-infection
# Description: Plasmodium berghei transfected with green fluorescence protein (strain ANKA), a chloroquine-sensitive strain, was stored in liquid nitrogen. Parasites were thawed and administered intraperitoneally (IP) to infect two donor mice a week before the experiment commenced. […] Finally, each of the test animals received 200 μl of the P. berghei-infected RBCs (1×10^7 per 200 μl PBS) IP to infect them with the parasite. There were three animals per dose group, and each of them received 200 μl of NP046 in water orally and intravenously (volume adjusted relative to the weight of mouse) at their respective dose concentration as shown below:
# The test compound was administered to the animals once a day for four days. […] Blood samples were collected via tail bleeding in tubes containing PBS on day 5, and % parasitaemia was determined with FACSCalibur™ using the software CellQuestPro [5].
# Finally, the percentage parasite growth inhibition was calculated using the following equation [6]: [drawing 1]
SMILES,solubility at 2 h [1],% growth inhibition ([2]; relative to negative control (placebo)),"% parasitaemia ([2]; once a day for four days, mean ± S.E.M)"
"COC(=O)[C@H]1[C@H]2C[C@@H]3c4[nH]c5cc(OC)ccc5c4CCN3C[C@H]2C[C@@H](OC(=O)c2cc(OC)c(OC)c(OC)c2)[C@@H]1OC [Reserpine, reference compound]",193 µM,–,–
"CCN(CC)CCCC(C)Nc1ccnc2cc(Cl)ccc12 (stereo not drawn) [Positive control, chloroquine phosphate, reference compound]",–,100%,0.01 ± 0.0%
